According to patent US20130143230A1, “MICROFLUIDIC-BASED CELL-CULTURING PLATFORM AND METHOD” (The Trustees of the Stevens Institute of Technology, priority 2011, published 2013):

Key:
Format in all cases: cell-based, Human
MCF-7 [1] = assay: Photodynamic therapy in 2D culture, live/dead staining
Text: […] After cellular uptake, 5-ALA was converted into photosensitive protoporphyrin (PpIX). […] High ROS concentrations led to cell destruction. To determine the extent of cell damage, the culture was stained with a live/dead staining kit (Sigma) after overnight culture and examined with a Leica confocal microscope.

MCF-7 [2] = assay: Photodynamic therapy in 3D cultured breast cancer tissue, live/dead staining; conditions: 3D tissue, perfusion 4 hours, broadband halogen light 1 minute, stained after overnight culture
Method: A photosensitizer precursor drug, aminolevulinic acid (5-ALA) was supplemented in the culture media delivered to a 3D cultured breast cancer tissue (MCF-7), and allowed to infiltrate the tissue via perfusion for 4 hours to emulate microinjection. After cellular uptake, 5-ALA was converted into photosensitive protoporphyrin (PpIX). […] High ROS concentrations led to cell destruction. To determine the extent of cell damage, the culture was stained with a live/dead staining kit (Sigma) after overnight culture and examined with a Leica confocal microscope.

MCF-7 [3] = assay: Drug evaluation in microfluidic 3D breast cancer tissue culture (tissue nodules); conditions: flow 0.8 μL/min, one week, 3D microfluidic culture
Method: Human breast cancer cells (from immortalized cell line MCF-7) were incubated in a tissue culture chamber for 2 weeks with a continuous media flow at 0.8 μL/min. Initial cell attachment was seen across the entire chamber surface and continuously proliferated over time to form a 3D tissue layer having a depth of about 70-100 μm. […] These structures were similar to those observed in the earliest stages of tumor formation. A majority of the cells remained viable.
In contrast to pure cultures of breast cancer cells, co-cultures with stromal cells stimulate breast cancer cells. […] At three weeks of incubation, the nodule-like structures had become large enough to be recognized under a microscope, reaching 80-150 μm in diameter. Based on histological staining, the organization of these cells was consistent with their cancerous origin. The cells appeared to be transformed, having an increased nuclear/cytoplasmic ratio, and the cell mass was disorganized.
Doxorubicin (Dox), a known anticancer drug, was first tested using the microfluidic breast tissue culture described in the preceding examples. Dox was delivered to the tissue nodules at 10 nM and 1 μM, respectively, at a flow rate of 0.8 μL/min of medium via the inlet for one week.
A new lytic anticancer peptide (L5) was designed and synthesized to interact with cell membranes and therefore disrupt membrane integrity and destroy cells. The peptide drug was delivered to the tissue nodules at 30 μg/mL in the medium at a flow rate of 0.8 μL/min of medium via inlet for 2 days. […] Occasionally, some nuclei were still seen in the remaining tissue matrix. […] This may be due to a reduced rate of diffusion of the drug to the area of the surviving cells. This finding highlights the value of using the microfluidic culture model for drug assessment as it provides a more accurate representation of the 3D cellular organization encountered in vivo. It also hints at a plausible explanation to why some breast cancer therapies fail in vivo or why recurrence and multidrug resistance occurs after chemotherapy. […]

**Q.** Which “cells killed after PDT treatment” value (MCF-7 [1]) does the source give for `NCC(=O)CCC(=O)O` [5-ALA, aminolevulinic acid] here?
**A.** The value was “about 70%”.

**Q.** What about the “cells killed after PDT treatment” value (MCF-7 [2]) of the same molecule?
**A.** The value was “about 50%”.

**Q.** How did the “progression of tumor nodules (real-time images)” value (MCF-7 [3]; 10 nM in medium) turn out when `COc1cccc2c1C(=O)c1c(O)c3c(c(O)c1C2=O)C[C@@](O)(C(=O)CO)C[C@@H]3O[C@H]1C[C@H](N)[C@H](O)[C@H](C)O1` [Dox, Doxorubicin] was run?
**A.** The value was “continuous progression of tumor nodules was observed”.

**Q.** What about the “formation of dark nodules (real-time images)” value (MCF-7 [3]; 1 μM in medium) of the same molecule?
**A.** The value was “No obvious formation of dark nodules was observed”.

**Q.** What about the tissue growth (MCF-7 [3]; 1 μM in medium) of the same molecule?
**A.** The tissue growth was “continuous tissue growth was noticed”.
